{"source": "paper PMC9127750", "about": "“Structure-based design of CDC42 effector interaction inhibitors for the treatment of cancer” (Cell reports, 2022)", "system": "WM3248 melanoma cells, 486 antibodies", "assay": "Reverse phase protein arrays (RPPA)", "format": "cell-based, Human", "source_text": "Pellets were snap frozen in liquid nitrogen and shipped to MD Anderson Cancer Center core RPPA facility for RPPA analysis (Table S5). Three biological replicates for each sample were generated.\nNomenclatures on the RPPA heatmaps: name_of_antibody.species_of_antibody.status_of_antibody. V - antibody validated; C - validation of antibody in progress; Q - antibody nonspecific; E – under evaluation; antibodies raised in M - mouse, G - goat, R - rabbit, or T - rat.", "key": {"[1]": {"details": "Norm_10, replicates 1-3 and Average, relative to Norm_0"}}, "note": "Several values for one entry are separate records, joined by “and”; a condition that tells them apart may be missing. Equal entries are not always repeated."}
{"smiles": "CN(C)c1cccc(Nc2cc(-c3ccccc3)nc(C3CCNCC3)n2)c1", "note": "[ARN22089, N1,N1-dimethyl-N3-(6-phenyl-2-(piperidin-4-yl)pyrimidin-4-yl)benzene-1,3-diamine]", "values": [{"measurement": "A.Raf.R.V RPPA signal, normalized", "setting": "[1]", "result": "1.018 and 0.886 and 0.845 and 0.916"}, {"measurement": "A.Raf_pS299.R.C RPPA signal, normalized", "setting": "[1]", "result": "0.956 and 1.046 and 0.963 and 0.988"}, {"measurement": "ACC1.R.C RPPA signal, normalized", "setting": "[1]", "result": "0.867 and 0.964 and 1.014"}, {"measurement": "ACC_pS79.R.V RPPA signal, normalized", "setting": "[1]", "result": "1.238 and 0.635 and 0.956 and 0.943"}, {"measurement": "ACLY_pS455.R.V RPPA signal, normalized", "setting": "[1]", "result": "1.247 and 1.003 and 1.249 and 1.166"}, {"measurement": "ACSL1.R.V RPPA signal, normalized", "setting": "[1]", "result": "1.119 and 1.062 and 0.954"}, {"measurement": "ACVRL1.R.C RPPA signal, normalized", "setting": "[1]", "result": "0.974 and 1.028 and 1.030"}, {"measurement": "ADAR1.M.V RPPA signal, normalized", "setting": "[1]", "result": "1.080 and 1.272 and 0.921"}, {"measurement": "ALKBH5.R.V RPPA signal, normalized", "setting": "[1]", "result": "1.021 and 1.291 and 1.103 and 1.138"}, {"measurement": "AMPK.a2_pS345.R.V RPPA signal, normalized", "setting": "[1]", "result": "0.954 and 0.956 and 0.960"}, {"measurement": "AMPKa.R.C RPPA signal, normalized", "setting": "[1]", "result": "1.010 and 0.920 and 1.002 and 0.977"}, {"measurement": "AMPKa_pT172.R.C RPPA signal, normalized", "setting": "[1]", "result": "3.569 and 0.222 and 0.796 and 1.529"}, {"measurement": "AR.R.V RPPA signal, normalized", "setting": "[1]", "result": "0.751 and 0.934 and 0.920"}, {"measurement": "ARID1A.R.C RPPA signal, normalized", "setting": "[1]", "result": "1.114 and 1.573 and 0.868 and 1.185"}, {"measurement": "ASNS.R.V RPPA signal, normalized", "setting": "[1]", "result": "1.340 and 0.994 and 0.954 and 1.096"}, {"measurement": "ATM.R.V RPPA signal, normalized", "setting": "[1]", "result": "0.847 and 0.838 and 0.979 and 0.888"}, {"measurement": "ATM_pS1981.R.V RPPA signal, normalized", "setting": "[1]", "result": "0.930 and 1.145"}, {"measurement": "ATP5A.M.C RPPA signal, normalized", "setting": "[1]", "result": "1.031 and 1.371 and 1.971 and 1.457"}, {"measurement": "ATP5H.R.V RPPA signal, normalized", "setting": "[1]", "result": "0.974 and 1.346 and 1.188 and 1.169"}, {"measurement": "ATR.R.V RPPA signal, normalized", "setting": "[1]", "result": "0.962 and 1.081 and 1.002 and 1.015"}, {"measurement": "ATRX.R.C RPPA signal, normalized", "setting": "[1]", "result": "0.876 and 0.968 and 0.978"}, {"measurement": "ATR_pS428.R.C RPPA signal, normalized", "setting": "[1]", "result": "1.008 and 0.851 and 1.012 and 0.957"}, {"measurement": "AceCS1.R.V RPPA signal, normalized", "setting": "[1]", "result": "1.235 and 1.121"}, {"measurement": "Akt1.R.V RPPA signal, normalized", "setting": "[1]", "result": "0.800 and 0.756 and 1.156 and 0.904"}, {"measurement": "Akt1_pS473.R.V RPPA signal, normalized", "setting": "[1]", "result": "0.892 and 0.682 and 1.059 and 0.878"}, {"measurement": "Akt2.R.V RPPA signal, normalized", "setting": "[1]", "result": "0.829 and 0.768 and 1.018 and 0.872"}, {"measurement": "Akt2_pS474.R.C RPPA signal, normalized", "setting": "[1]", "result": "1.011 and 0.801 and 0.950"}, {"measurement": "Akt.R.V RPPA signal, normalized", "setting": "[1]", "result": "0.830 and 0.878 (2×) and 0.925"}, {"measurement": "Akt_pS473.R.V RPPA signal, normalized", "setting": "[1]", "result": "2.128 and 0.984 and 1.238 and 1.450"}, {"measurement": "Akt_pT308.R.V RPPA signal, normalized", "setting": "[1]", "result": "1.187 and 1.056 and 1.185 and 1.143"}, {"measurement": "Ambra1_pS52.R.C RPPA signal, normalized", "setting": "[1]", "result": "0.964 (2×) and 1.015 and 0.981"}, {"measurement": "Annexin.I.M.V RPPA signal, normalized", "setting": "[1]", "result": "0.849 and 0.987 and 1.005"}, {"measurement": "Annexin.VII.M.V RPPA signal, normalized", "setting": "[1]", "result": "0.985 and 1.189 and 0.954"}, {"measurement": "Atg3.R.V RPPA signal, normalized", "setting": "[1]", "result": "0.983 and 0.993 and 0.963"}, {"measurement": "Atg4B.R.C RPPA signal, normalized", "setting": "[1]", "result": "0.966 and 1.004"}, {"measurement": "Atg5.R.C RPPA signal, normalized", "setting": "[1]", "result": "0.905 and 0.930 and 0.971 and 0.935"}, {"measurement": "Atg7.R.V RPPA signal, normalized", "setting": "[1]", "result": "0.958 and 0.891 and 0.903 and 0.917"}, {"measurement": "Aurora.A.R.C RPPA signal, normalized", "setting": "[1]", "result": "0.694 and 1.245 and 1.028 and 0.989"}, {"measurement": "Aurora.ABC_pT288_pT232_pT198.R.C RPPA signal, normalized", "setting": "[1]", "result": "1.548 and 0.847 and 0.955 and 1.117"}, {"measurement": "Aurora.B.R.V RPPA signal, normalized", "setting": "[1]", "result": "1.012 and 1.271 and 1.347 and 1.210"}, {"measurement": "Axl.R.V RPPA signal, normalized", "setting": "[1]", "result": "1.047 and 0.637 and 0.861 and 0.848"}, {"measurement": "B7.H3.R.C RPPA signal, normalized", "setting": "[1]", "result": "0.961 and 0.915 and 0.940 and 0.939"}, {"measurement": "B7.H4.R.C RPPA signal, normalized", "setting": "[1]", "result": "0.943 and 0.916 and 1.001 and 0.953"}, {"measurement": "B.Raf.R.C RPPA signal, normalized", "setting": "[1]", "result": "0.738 and 0.844 and 1.157 and 0.913"}, {"measurement": "B.Raf_pS445.R.V RPPA signal, normalized", "setting": "[1]", "result": "0.940 and 0.823 and 0.918 and 0.894"}, {"measurement": "BAP1.M.V RPPA signal, normalized", "setting": "[1]", "result": "0.893 and 1.010 and 1.204"}, {"measurement": "BCL2A1.R.V RPPA signal, normalized", "setting": "[1]", "result": "0.914 and 2.333 and 1.252 and 1.499"}, {"measurement": "BMK1.Erk5_pT218_Y220.R.V RPPA signal, normalized", "setting": "[1]", "result": "0.935 and 0.870 and 0.918"}, {"measurement": "BRCA1.M.C RPPA signal, normalized", "setting": "[1]", "result": "0.931 and 1.056 and 1.010"}, {"measurement": "BRD4.R.V RPPA signal, normalized", "setting": "[1]", "result": "1.134 and 1.372 and 0.806 and 1.104"}, {"measurement": "Bad_pS112.R.V RPPA signal, normalized", "setting": "[1]", "result": "1.129 and 0.968 and 1.064 and 1.054"}, {"measurement": "Bak.R.C RPPA signal, normalized", "setting": "[1]", "result": "1.051 and 0.994 and 0.952 and 0.999"}, {"measurement": "Bax.R.V RPPA signal, normalized", "setting": "[1]", "result": "0.935 and 1.085 and 1.013 and 1.011"}, {"measurement": "Bcl2.R.C RPPA signal, normalized", "setting": "[1]", "result": "0.991 and 1.244 and 1.141 and 1.125"}, {"measurement": "Bcl.xL.R.V RPPA signal, normalized", "setting": "[1]", "result": "0.890 and 1.164 and 1.151"}, {"measurement": "Beclin.R.C RPPA signal, normalized", "setting": "[1]", "result": "0.901 and 1.245 and 1.080"}, {"measurement": "BiP.GRP78.M.C RPPA signal, normalized", "setting": "[1]", "result": "0.879 and 1.117 and 1.006 and 1.001"}, {"measurement": "Bid.R.C RPPA signal, normalized", "setting": "[1]", "result": "0.866 and 0.980 and 0.948 and 0.931"}, {"measurement": "Bim.R.V RPPA signal, normalized", "setting": "[1]", "result": "0.847 and 0.884 and 0.890 and 0.874"}, {"measurement": "X4E.BP1.R.V RPPA signal, normalized", "setting": "[1]", "result": "1.207 and 0.505 and 0.892 and 0.868"}, {"measurement": "X4E.BP1_pS65.R.V RPPA signal, normalized", "setting": "[1]", "result": "0.934 and 1.191 and 1.054"}, {"measurement": "X4E.BP1_pT37_T46.R.V RPPA signal, normalized", "setting": "[1]", "result": "0.921 and 1.081 and 1.234 and 1.079"}, {"measurement": "X14.3.3.zeta.R.V RPPA signal, normalized", "setting": "[1]", "result": "1.058 and 1.063"}, {"measurement": "X14.3.3βR.V RPPA signal, normalized", "setting": "[1]", "result": "0.989 and 1.030 and 1.010 (2×)"}, {"measurement": "X14.3.3εM.C RPPA signal, normalized", "setting": "[1]", "result": "0.934 and 0.986 and 1.121 and 1.013"}, {"measurement": "X53BP1.R.V RPPA signal, normalized", "setting": "[1]", "result": "0.994 and 0.931 and 0.923"}, {"measurement": "b.Actin.R.C RPPA signal, normalized", "setting": "[1]", "result": "0.850 and 1.249 and 1.164"}, {"measurement": "b.Catenin.R.V RPPA signal, normalized", "setting": "[1]", "result": "0.881 and 0.923"}, {"measurement": "b.Catenin_pT41_S45.R.V RPPA signal, normalized", "setting": "[1]", "result": "1.016 and 0.989 and 1.006 and 1.004"}, {"measurement": "c.Abl.R.V RPPA signal, normalized", "setting": "[1]", "result": "1.105 and 1.008 and 1.020"}, {"measurement": "c.Abl_pY412.R.C RPPA signal, normalized", "setting": "[1]", "result": "0.873 and 0.871 and 0.928"}, {"measurement": "c.IAP2.R.C RPPA signal, normalized", "setting": "[1]", "result": "1.099 and 1.057"}, {"measurement": "C.Raf.R.C normalized signal", "setting": "Norm_10 Average", "result": 0.862}, {"measurement": "C.Raf_pS338.R.V normalized signal", "setting": "Norm_10 Average", "result": 0.971}, {"measurement": "CA9.R.C normalized signal", "setting": "Norm_10 Average", "result": 0.943}, {"measurement": "CD2.M.C normalized signal", "setting": "Norm_10 Average", "result": 0.963}, {"measurement": "CD4.R.V normalized signal", "setting": "Norm_10 Average", "result": 0.931}, {"measurement": "CD5.M.C normalized signal", "setting": "Norm_10 Average", "result": 1.007}, {"measurement": "CD20.R.C normalized signal", "setting": "Norm_10 Average", "result": 1.296}, {"measurement": "CD26.R.V normalized signal", "setting": "Norm_10 Average", "result": 1.007}, {"measurement": "CD29.M.V normalized signal", "setting": "Norm_10 Average", "result": 0.953}]}
